Columns and labels:
most plant species = most plant species (Franz, 1985), but not all; cited from earlier work
[1] = tested on: DK580 and DK626 hybrids of FI117, GA21, GG25 and GJ11; test: Yield effect of glyphosate application on DK580 and DK626 hybrids (field test); format: in vivo, maize
Protocol: Tests were designed as four row, 3 rep., split-split-plot with main plots as hybrids, subplots as transformant sources (i.e. GA21, GG25, FI117, and GJ11) and subplots as timing/rate combinations […]. Statistical methods for design and analysis of data derived from experimental field plots are described in Gomez and Gomez, (1984). Tests were conducted in Dekalb, Ill., and Thomasboro, Ill. during 1996. All rows were planted at double normal planting density, i.e., 60 seeds per row, because hybrids segregated 1:1 for the glyphosate resistance trait. Sprayed plants were thinned to 30 plants per row no sooner than 7 days after application of Roundup at a time when Roundup susceptible plants could be identified. Unsprayed plots were thinned to 30 plants per row at the same time. […] After thinning, the mean extended leaf height was measured on 10 resistant plants per plot. […]
Four DK580 and four DK626 hybrids, each containing a different mutant EPSPS transgene from one of the GA21, FI117, GJ11 or GG25 transformation events, were field tested for possible effects on yield with glyphosate application as described in Example 12, with treatments as shown in FIG. 13. […] Data were analyzed using the SAS PROC MIXED and PROC SUM procedures. […]

[2] = tested on: DK580 and DK626 BC4 hybrids of FI117, GA21, GG25 and GJ11; test: Effect of glyphosate application on growth and fertility of DK580 and DK626 hybrids (field test); format: in vivo, maize
From the text: BC4 hybrids of DK580 and DK626 were produced containing one of the FI117, GA21, GG25 or GJ11 transformation events as described in example 14. Comparisons of the effect of glyphosate application on growth (mean extended leaf height) and male fertility was compared at both the V4 and V8 developmental stage. The developmental scale that was used to rate the corn plants is well known in the art, and is described in Special Report No. 48, Iowa State University of Science and Technology, Cooperative Extension Service, Ames, Iowa. Each of the hybrids was studied at both the V4 and V8 stage using 0× glyphosate (i.e. water only), 1× glyphosate, or 4× glyphosate (the 1× level corresponds to 16 ounces/acre of ROUNDUP ULTRA™).
Tests were designed as four row, 3 rep., split-split-plot with main plots as hybrids, subplots as transformant sources (i.e. GA21, GG25, FI117, and GJ11) and subplots as timing/rate combinations […]. Statistical methods for design and analysis of data derived from experimental field plots are described in Gomez and Gomez, (1984). Tests were conducted in Dekalb, Ill., and Thomasboro, Ill. during 1996. All rows were planted at double normal planting density, i.e., 60 seeds per row, because hybrids segregated 1:1 for the glyphosate resistance trait. Sprayed plants were thinned to 30 plants per row no sooner than 7 days after application of Roundup at a time when Roundup susceptible plants could be identified. Unsprayed plots were thinned to 30 plants per row at the same time. At 5-10 days after herbicide application, the following data was collected in each row: number of dead plants, number of damaged plants, and number of normal plants. After thinning, the mean extended leaf height was measured on 10 resistant plants per plot. During the remainder of the growing season the following agronomic data was collected: early stand count, seedling vigor, final stand count, plant height, ear height, intactness, stay green, number of barren plants, number of male-sterile plants, number of dropped ears, number of root lodged plants, number of stalks lodged plants, shelled grain weight, per cent grain moisture at harvest, and test weight.

Structure (SMILES) | phytotoxicity relative to glyphosate (most plant species) | effect on yield ([1]; DK580 hybrids, glyphosate applied at V4 stage) | effect on yield ([1]; DK626 hybrids with GA21 or FI117, V8 stage, 4× rate) | male fertility ([2]; all 4 GA21 treatments) | resistance to glyphosate (mean extended leaf height) ([2]; all 4 transformation events, 1× and 4× application levels (1× = 16 ounces/acre ROUNDUP ULTRA)) | male fertility ([2]; application at V4 stage, all plants) | male fertility ([2]; application at V8 stage, only GJ11 and GJ25 treatments)
NCP(=O)(O)O [AMPA, aminomethylphosphonate] | much less phytotoxic than glyphosate | – | – | – | – | – | –
O=C(O)CNCP(=O)(O)O [glyphosate, N-phosphonomethyl-glycine] | – | significant decreases in yield are not observed for 3 of the 4 DK580 hybrids | no significant loss in yield | male-fertile plants | significant resistance | male-fertile | male sterile plants

Reference: patent US7314970B2, “Method for plant breeding” (priority 1997, dated 2008)
